Experimental findings from patent publication EP4755403A1, “ANTI-PSMA ANTIBODY-DRUG CONJUGATE AND PHARMACEUTICAL USE THEREOF” (Jiangsu Hengrui Pharmaceuticals Co., Ltd., priority 2023, dated 2025) are described below.

What all share (test): Cell killing activity of ADC molecules (CellTiter-Glo)
Format in all cases: cell-based, human
What all share (conditions): 5 days

One experiment has as its system 22RV1 cells. As for the experimental part: (§1) LNCaP (ATCC, CRL-1740), 22RV1 (ATCC, CRL-2505), and PC-3 (ATCC, CRL-1435) cells were digested with trypsin, neutralized with a fresh medium, centrifuged at 1000 rpm, and then resuspended in a medium. After the cells were counted, the density of the cell suspensions was adjusted to […], and the cells were plated onto a 96-well plate. The adjusted cell suspension (135 µL) was added to each well with […]. Only the middle 60 wells were used for plating, and six wells in the twelfth column were taken as pure medium controls without cells. An equal volume of PBS was added to the other wells. The cells were incubated at 37 °C with 5% CO2 for 16 h.
(§2) Then 20 µL of the dilution was added to the cell plate described above, and the plate was incubated in an incubator (37 °C, 5% CO2) for 5 days. […] Subsequently, 9-point serial dilutions at a 1:3 ratio were performed with PBS. Then 1 µL of the dilution was added to 20 µL of RPMI-1640, and the mixture was transferred to a 96-well cell culture plate. The plate was incubated in an incubator (37 °C, 5% CO2) for 5 days. In the 96-well cell culture plate, 80 µL of the CellTiter-Glo reagent was added to each well, and the plate was left to stand in the dark at room temperature for 10-15 min. The chemiluminescence signal values were read on Victor3, and the data were processed using GraphPad software.
(§3) On the fifth day, the culture plate was taken out and allowed to return to room temperature. The CellTiter-Glo assay solution (75 µL) was added to each well, and the plate was left to stand in the dark at room temperature for 10 min. A Backseal membrane was attached to the bottom of the cell culture plate. The plate was placed on a microplate reader Victor 3, and luminescence signal values were read. Curve fitting was performed according to the log values of concentrations of the test compounds to the corresponding signal values using Graphpad Prism software, and IC50 values were calculated. The maximum value of killing was defined as the maximum killing rate (Imax) of the compound. The killing rate was calculated as follows: [formula]

The subject of another experiment is LNCaP cells. The protocol:
as §1, §2, §3

The test system of a further experiment is PC-3 cells. As for the experimental part:
as §1, §2, §3

[1] abbreviates: Homo sapiens, 120 h, read-out: IC50 (killing effect).

Structures are written as SMILES.

The term IC50 denotes the concentration needed to halve the response being measured. Regarding `CC[C@@]1(O)C(=O)OCc2c1cc1n(c2=O)Cc2c-1nc1cc(F)c(C)c3c1c2[C@@H](NC(=O)[C@H](O)C1CC1)CC3` [Compound 2-B], the entries for the “Imax (maximum killing rate)” value in the experiment on 22RV1 cells, in the experiment on LNCaP cells and with PC-3 cells were 98.07%, 97.13% and 92.78%, respectively. In addition, the IC50 in the experiment on 22RV1 cells (setting [1]) was 0.534 nM; in the experiment with LNCaP cells (setting [1]) it was 0.535 nM; with PC-3 cells (setting [1]) it was 1.54 nM.
